Test results from the NIST ThermoML archive (doi:10.1021/acs.jced.6b00354).
± gives the expanded uncertainty stated by the source.

Details: 101.33 kPa, Liquid, Vibrating tube method

CC(=O)N(C)C [N,N-dimethylethanamide]
Details	mass density [kg/m3]
283.15 K	950.189 ± 0.077
288.15 K	945.589 ± 0.079
293.15 K	940.983 ± 0.081
298.15 K	936.38 ± 0.084
303.15 K	931.762 ± 0.086
308.15 K	927.145 ± 0.088
313.15 K	922.523 ± 0.09
318.15 K	917.893 ± 0.093
